The results in this text go back to patent US20230099031A1, “BIFUNCTIONAL AGENTS FOR PROTEIN RECRUITMENT AND/OR DEGRADATION” (Orionis Biosciences, Inc., priority 2019, published 2023).

The target in the first test is T1, SALL4 (Homo sapiens, UniProt Q96SW2+Q9UJQ4).
T1 construct: Full size proteins are fused for each of the target proteins tested; expressed in transfected cells; host or cells: HEK293T
Description: Recruitment Assay (MAPPIT-like): SALL4 recruitment, pSEL-SALL4+pMG1-CRBN. The format is cell-based. The following applies: recruitment of SALL4, protocol of Example 2; read-out: EC50_SALL4. Here is the method: In this experimental set-up, cells are transfected with a construct encoding a CRBN-fusion protein and another one encoding a substrate-fusion protein. Test compound activity is assessed with increasing concentrations of test compounds (dose-response studies) to monitor the ability to promote CRBN-ligand-induced protein interaction.
Full size proteins are fused for each of the target proteins tested, except in the case of IKZF1 where isoform 7 is used, and BRD4, where isoform 3 is applied. For the study, the following construct combinations are used: IKZF1 recruitment: pSEL-CRBN+pMG1-IKZF1(isoform 7); ASS1 recruitment: pSEL-CRBN+pMG1-ASS1; SALL4 recruitment: pSEL-SALL4+pMG1-CRBN; DHFR recruitment: pCLG-DHFR+pMG1-CRBN; ESR1 recruitment: pSEL-CRBN+pMG1-ESR1; BRD4 recruitment: pSEL-CRBN+pMG1-BRD4(isoform 3). Cells are treated with erythropoietin (Epo; where pSEL-type receptor fusions constructs are used) or leptin (in the case pCLG-type receptor fusion constructs are applied) without or with the indicated dose of test compound at 24 hours after transfection. Luciferase activity is measured 24 hours after test compound treatment using the Luciferase Assay System kit (PROMEGA, Madison, Wis.) with an Ensight plate reader (PERKIN ELMER LIFE SCIENCES, Waltham, Mass.). Data points depict fold induction of the average luciferase activity of triplicate samples from Epo or leptin+test compound treated cells versus Epo or leptin only treated cells. Error bars represent standard deviations. Curves are fit using 4-parameter nonlinear regression in […] PRISM software.
Turning to `O=C1CCC(N2Cc3cc(-c4ccccc4)ccc3C2=O)C(=O)N1` (stereo not shown) [Compound C48016, 3-(1-oxo-5-phenyl-isoindolin-2-yl)piperidine-2,6-dione], the EC50 stood at 0.122 µM. For the compound `O=C1CCC(N2Cc3ccc(NCC(=O)NC4CCOCC4)cc3C2=O)C(=O)N1` (stereo not shown) [Compound C12693, 2-[[2-(2,6-dioxo-3-piperidyl)-3-oxo-isoindolin-5-yl]amino]-N-tetrahydropyran-4-yl-acetamide], the EC50 was found to be 2.62 µM. `O=C1CCC(N2Cc3ccccc3C2)C(=O)N1` (stereo not shown) [Compound C87699, 3-isoindolin-2-ylpiperidine-2,6-dione]: the EC50 was determined as 4.82 µM. With `O=C1CCC(N2Cc3cc(Nc4ncc5[nH]cnc5n4)ccc3C2=O)C(=O)N1` (stereo not shown) [Compound C80376, 3-[1-oxo-5-(7H-purin-2-ylamino)isoindolin-2-yl]piperidine-2,6-dione], the EC50 was 0.559 µM. Consider `O=C1CCC(N2Cc3ccc(NCC(=O)NC4CCOC4)cc3C2=O)C(=O)N1` (stereo not shown) [Compound C12694, 2-[[2-(2,6-dioxo-3-piperidyl)-3-oxo-isoindolin-5-yl]amino]-N-tetrahydrofuran-3-yl-acetamide], for which the EC50 was determined as 3.43 µM. As to `O=C1CCC(N2C(=O)c3ccccc3C2NCc2ccccc2)C(=O)N1` (stereo not shown) [Compound C10239, 3-[1-(benzylamino)-3-oxo-isoindolin-2-yl]piperidine-2,6-dione], the EC50 stood at 1.16 µM.

A further test addresses T2, CRBN (Homo sapiens, UniProt Q96SW2).
T2 construct: expressed in transfected cells; host or cells: HEK293T
Description: Competition Assay: MAPPIT-like, competition with trimethoprim-lenalidomide hybrid ligand for binding to CRBN in HEK293T cells. The following applies: HEK293T cells, 300 nM trimethoprim-lenalidomide hybrid ligand, luciferase 24 hours after compound treatment; read-out: Competition IC50. The format is cell-based. The text has this:
A bait protein (protein A) is expressed as a fusion protein in which it is genetically fused to an engineered intracellular receptor domain of the leptin receptor, which is itself fused to the extracellular domain of the erythropoietin (Epo) receptor. Binding of Epo ligand to the EpoR component results in activation of receptor-associated intracellular JAK2. However, activated JAK2 cannot activate the leptin receptor to trigger STAT3 binding and its phosphorylation because its tyrosine residues, normally phosphorylated by activated JAK2, have been mutated. Reconstitution of a JAK2 phosphorylatable STAT3 docking site is instead created through interaction of a protein B with protein A, whereby protein B is fused to a cytoplasmic domain of the gp130 receptor (which now harbors appropriate tyrosine resides recognized by the activated JAK2 kinase). Thus, physical interaction of protein A with protein B reconstitutes and Epo triggers JAK2-STAT3 signaling pathway activation. Activation of STAT3 can be monitored by introduction of a STAT3-responsive reporter gene, including a luciferase-encoding gene or a gene encoding a fluorescent marker such as GFP or some other type of fluorescent protein (EGF etc.). In this manner, the MAPPIT assay provides a versatile assay to assess such recombinant protein-protein interactions, or compound- or hybrid ligand-induced protein-protein interactions, in intact cells.
Formation of the complex results in activation of a STAT-responsive luciferase reporter gene. That signal is set to 100% luciferase activity. In a separate sample set up, cells are prepared in the same manner but, in addition, co-incubated with a test compound whose interaction with CRBN is investigated. […] Increasing concentrations of test compound are assessed to determine CRBN binding efficiency as determined in this type of ligand competition experiment in living cells. Specificity of signal inhibition is assessed by a parallel experimental set up in which test compound effect is assessed for inhibition of signal generated by a control gp130 fusion protein (CTRL) that directly binds to the DHFR-fusion protein in the absence of hybrid ligand (i.e. a direct interaction of the proteins).
In more detail, HEK293T cells are cultured in Dulbecco's modified Eagle's medium supplemented with 10% fetal calf serum, incubated at 37° C., 8% CO2. […] Data points represent the average luciferase activity of triplicate samples derived from cells treated with leptin+test compound for the REM2 control (CTRL) or cells treated with leptin+hybrid ligand+test compound (CRBN) relative to leptin (CTRL) or leptin+hybrid ligand (CRBN) only treated samples (the signals obtained in absence of added test compound for both cases is set at 100% of luciferase activity on y-axis). Error bars represent standard deviations. Curves are fit using 4-parameter nonlinear regression in […] PRISM software
With `C#CCOCCOCCOCCOCC(=O)Nc1cc(Br)c2c(c1OC)C(=O)N(C1CCC(=O)NC1=O)C2` (stereo not shown) [Compound 5.04], the IC50 (as a rule, the midpoint of a concentration-inhibition curve) was 0.189 µM. For `Cc1sc2c(c1C)C(c1ccc(Cl)cc1)=N[C@@H](CC(=O)NCCNC(=O)COc1cccc3c1CN(C1CCC(=O)NC1=O)C3=O)c1nnc(C)n1-2` (stereo partly shown) [Compound 5.60], the IC50 stood at 0.116 µM. The same measure, in the same setting: with `Cc1sc2c(c1C)C(c1ccc(Cl)cc1)=N[C@@H](CC(=O)NCCOCCOCCNC(=O)COc1cccc3c1CN(C1CCC(=O)NC1=O)C3=O)c1nnc(C)n1-2` (stereo partly shown) [Compound 5.59] the figure was 0.068 µM. As to `Cc1sc2c(c1C)C(c1ccc(Cl)cc1)=N[C@@H](CC(=O)NCCOCCOCCOCCNC(=O)COc1cccc3c1CN(C1CCC(=O)NC1=O)C3=O)c1nnc(C)n1-2` (stereo partly shown) [Compound 5.58], the IC50 is 0.0998 µM.

The same test, now with this note: protocol and reagents of Example 1; read-out: IC50 Competition.
With `O=C1CCC(N2Cc3cc(-c4ccccc4)ccc3C2=O)C(=O)N1` (stereo not shown) [Compound C48016, 3-(1-oxo-5-phenyl-isoindolin-2-yl)piperidine-2,6-dione], the IC50 worked out at 0.173 µM. With `O=C1CCC(N2Cc3ccc(NCC(=O)NC4CCOCC4)cc3C2=O)C(=O)N1` (stereo not shown) [Compound C12693, 2-[[2-(2,6-dioxo-3-piperidyl)-3-oxo-isoindolin-5-yl]amino]-N-tetrahydropyran-4-yl-acetamide], the IC50 was found to be 8.33 µM. For the compound `O=C1CCC(N2Cc3ccccc3C2)C(=O)N1` (stereo not shown) [Compound C87699, 3-isoindolin-2-ylpiperidine-2,6-dione], the IC50 stood at 19.6 µM.

As for `O=C1CCC(Nc2cnc3ccccc3n2)C(=O)N1` (stereo not shown) [Compound C44292, 3-(quinoxalin-2-ylamino)piperidine-2,6-dione], the IC50 is 8.32 µM. For the compound `Cc1cccc2c1C(=O)N(C1CCC(=O)NC1=O)C2` (stereo not shown) [Compound C28661, 3-(7-methyl-1-oxo-isoindolin-2-yl)piperidine-2,6-dione], the IC50 turned out to be 0.654 µM. On the same count and under the same terms, with `CC1CCCCN1C(=O)CNc1ccc2c(c1)C(=O)N(C1CCC(=O)NC1=O)C2` (stereo not shown) [Compound C12584, 3-[6-[[2-(2-methyl-1-piperidyl)-2-oxo-ethyl]amino]-1-oxo-isoindolin-2-yl]piperidine-2,6-dione] the figure was 7.91e-05 µM; with `Nc1cccc2c(=O)n(C3CCC(=O)NC3=O)nnc12` (stereo not shown) [Compound C35833, 3-(8-amino-4-oxo-1,2,3-benzotriazin-3-yl)piperidine-2,6-dione], 0.684 µM; with `COc1ccc(C2c3ccccc3C(=O)N2C2CCC(=O)NC2=O)cc1` (stereo not shown) [Compound C11892, 3-[1-(4-methoxyphenyl)-3-oxo-isoindolin-2-yl]piperidine-2,6-dione], 8.16 µM.

For the compound `O=C1N=c2ccc(NC(=O)NCc3ccccc3)cc2=N1` [1-benzyl-3-(2-oxobenzimidazol-5-yl)urea], the IC50 was found to be 23.8 µM. Turning to `Nc1nccc(Nc2ccc3c(c2)CN(C2CCC(=O)NC2=O)C3=O)n1` (stereo not shown) [Compound C80375, 3-[5-[(2-aminopyrimidin-4-yl)amino]-1-oxo-isoindolin-2-yl]piperidine-2,6-dione], the IC50 worked out at 2.06 µM.

In the case of `O=C1CCC(CN2C(=O)c3ccccc3C2=O)C(=O)N1` (stereo not shown) [Compound C23258, 2-[(2,6-dioxo-3-piperidyl)methyl]isoindoline-1,3-dione], the IC50 is 14500 µM. In the case of `Cn1ncc2c(Nc3ccc4c(c3)CN(C3CCC(=O)NC3=O)C4=O)ncnc21` (stereo not shown) [Compound C80374, 3-[5-[(1-methylpyrazolo[3,4-d]pyrimidin-4-yl)amino]-1-oxo-isoindolin-2-yl]piperidine-2,6-dione], the IC50 came out at 16.6 µM.

As to `CC(=O)NCC(=O)Nc1ccc2c(c1)C(=O)N(C1CCC(=O)NC1=O)C2` (stereo not shown) [Compound C84967, 2-acetamido-N-[2-(2,6-dioxo-3-piperidyl)-3-oxo-isoindolin-5-yl]acetamide], the IC50 is 3.15 µM. With `O=C1CCC(N2Cc3ccc(N4CCNC4=O)cc3C2=O)C(=O)N1` (stereo not shown) [Compound C84971, 3-[1-oxo-6-(2-oxoimidazolidin-1-yl)isoindolin-2-yl]piperidine-2,6-dione], the IC50 turned out to be 1.31 µM. In the case of `O=C1CCC(N2Cc3ccc(NCC(=O)NC4CC4)cc3C2=O)C(=O)N1` (stereo not shown) [Compound C84963, N-cyclopropyl-2-[[2-(2,6-dioxo-3-piperidyl)-3-oxo-isoindolin-5-yl]amino]acetamide], the IC50 is 1.21 µM. `CN(Cc1cnn(C)c1)C(=O)CNc1ccc2c(c1)C(=O)N(C1CCC(=O)NC1=O)C2` (stereo not shown) [Compound C95333, 2-[[2-(2,6-dioxo-3-piperidyl)-3-oxo-isoindolin-5-yl]amino]-N-methyl-N-[(1-methylpyrazol-4-yl)methyl]acetamide]: the concentration for half-maximal inhibition (IC50) was 0.591 µM. In the case of `O=C1CCC(N2Cc3ccc(NCC(=O)N4CCc5ccccc5C4)cc3C2=O)C(=O)N1` (stereo not shown) [Compound C95329], the IC50 amounted to 10.3 µM. On to `O=C1CCC(N2C(=O)c3ccccc3C2C2=c3ccccc3=NC2)C(=O)N1` (stereo not shown) [Compound C49713, 3-[1-(2H-indol-3-yl)-3-oxo-isoindolin-2-yl]piperidine-2,6-dione], for which the IC50 stood at 6.74 µM.

As to `O=C1c2ccccc2CC1n1ccc(=O)[nH]c1=O` (stereo not shown) [Compound C16899, 1-(1-oxoindan-2-yl)pyrimidine-2,4-dione], the IC50 came to 10.4 µM.

As to `O=C1Cc2ccccc2C(=O)N1` [Compound C15352, 4H-isoquinoline-1,3-dione], the IC50 turned out to be 10.3 µM. With `O=C1CC=CC(C(=O)NC2CCC(=O)NC2=O)=N1` (stereo not shown) [Compound C98696, N-(2,6-dioxo-3-piperidyl)-2-oxo-3H-pyridine-6-carboxamide], the 50% inhibitory concentration (IC50) amounted to 9.34 µM. Turning to `COC1c2ccccc2C(=O)N1C1CCC(=O)NC1=O` (stereo not shown) [Compound C56572, 3-(1-methoxy-3-oxo-isoindolin-2-yl)piperidine-2,6-dione], the 50% inhibitory concentration (IC50) was found to be 8.61 µM. The same measure, in the same setting: then `CN(C)c1ccc2c(c1)C(=O)N(C1CCC(=O)NC1=O)C2` (stereo not shown) [Compound C96622, 3-[6-(dimethylamino)-1-oxo-isoindolin-2-yl]piperidine-2,6-dione], with 0.214 µM. Consider `O=C1CCC(Nc2ncc3ccccc3n2)C(=O)N1` (stereo not shown) [Compound C97402, 3-(quinazolin-2-ylamino)piperidine-2,6-dione], for which the IC50 came out at 6.32 µM.
